Assay results reported in publication PMC10671498, “Antiproliferative and Cytotoxic Properties of Propynoyl Betulin Derivatives against Human Ovarian Cancer Cells: In Vitro Studies” (International Journal of Molecular Sciences, 2023).
Like-named read-outs stand apart in the source and are kept apart here.

Columns and labels:
[1] = test system: SK-OV-3 cells; test: SRB cell proliferation assay, SK-OV-3; format: cell-based, human; conditions: for IC50: Homo sapiens
Experimental: This study used ovarian cancer cell lines, which are part of the panel of cell lines used as part of the NCI-60 Human Cell Lines Screen program, characterized by overexpression of the c-erbB2/neu (HER2) receptor [62, 63]. The human ovarian cancer cell lines (SK-OV-3 and OVCAR-3) were purchased from the American Type Culture Collection (ATCC®, Manassas, Virginia, USA). SK-OV-3 cells (ATCC No. HTB-77™) were cultured in McCoy’s 5A medium containing D-glucose (3 g/L), L-glutamine (0.219 g/L), and sodium bicarbonate (2.2 g/L) supplemented with 10% fetal bovine serum, 10 mM HEPES (pH 7.3–7.5), 100 U/mL penicillin, and 100 μg/mL streptomycin (all from Sigma Aldrich).
(§1) Betulin 1 and its derivatives were dissolved in dimethyl sulfoxide (DMSO; Sigma Aldrich) as a 15 mM stock solution. Working solutions were prepared through the dilution of stock solutions with culture medium. The final DMSO concentration in culture media was adjusted to 0.2%. The effect of tested compounds on the proliferation of SK-OV-3 and OVCAR-3 cells was measured using the In Vitro Toxicology Assay Kit, Sulforhodamine B based (Sigma Aldrich). Cells were seeded in 96-well plates (Greiner Bio-One, Kremsmünster, Austria) at an initial density of 3 × 10^3 cells per well in 200 µL of culture medium. After 24 h of incubation, betulin 1 and its derivatives at a concentration range of 0.1 μM to 30 μM were added to the wells. Control cultures were treated with vehicle alone (0.2% DMSO). The incubation periods for cells with test compounds were 1 day, 3 days, and 5 days. After appropriate incubation periods, culture media were removed, and cells were fixed in 10% trichloroacetic acid solution for 60 min at 4 °C. After fixation, the TCA solution was removed, and the plates were washed three times with deionized water (300 μL/well) and dried. At the next step, cells were stained with 0.4% sulforhodamine B for 30 min. The excess dye was removed by washing three times with 1% (vol/vol) acetic acid. The protein-bound dye was dissolved in 200 μL 10 mM Tris base solution. Absorbance was measured at 570 nm and 690 nm (reference wavelength) using the MRX Revelation plate reader (Dynex Technologies, Chantilly, VA, USA).
(§2) GraphPad Prism 10.0.2 (GraphPad Software Inc., San Diego, CA, USA) software was used for calculations and the statistical analysis of the IC50 values (Table 1). IC50 was determined by using the “nonlinear regression” mode, and the “log(inhibitor) vs. normalised response—Variable slope” equation was chosen in GraphPad Prism software for calculations. The obtained data were normalized to run from 100% down to 0%, and logarithms of concentration were used. Graphs (Figure 2, Figure 3, Figure 4, Figure 5 and Figure 8, and Supplementary Figure S1) were also prepared using this software. In the case of the lack of normal distribution or homogeneity of variances, the remaining results were analyzed using a non-parametric Kruskal–Wallis test with multiple comparisons. Post hoc analysis was performed with the non-parametric equivalent of Tukey’s test. A p value of <0.05 was considered statistically significant. Otherwise, a one-way ANOVA followed by a Tukey’s post hoc test was applied. t-tests was used to perform pairwise comparisons between group means. Analysis was performed using Statistica 13.1 software (StatSoft, Tulsa, OK, USA).

[2] = test system: 18Co normal myofibroblasts; test: SRB cell proliferation assay, 18Co normal myofibroblasts; format: cell-based; conditions: 18Co, Neg: negative in the concentration used
Experimental: Next, 18Co cells (ATCC No. CRL-1459™) were cultured in MEM medium containing HEPES buffer, 10% fetal bovine serum, 100 U/mL penicillin, and 100 μg/mL streptomycin (all from Sigma Aldrich).
as §1, §2

[3] = test system: OVCAR-3 cells; test: DNA fragmentation assay (Cell Death Detection ELISA, cytoplasmic fraction), OVCAR-3; format: cell-based, human; conditions: OVCAR-3, 24 h; for DNA fragmentation (number of mono- and oligonucleosomes): 3 µM and 10 µM
Experimental: Fragmentation of genomic DNA was determined by means of the Cell Death Detection ELISAPLUS kit (Roche, Basel, Switzerland). This method rests on the immunoenzymatic detection of DNA–histone complexes in the cytoplasmic cell fraction or cell culture supernatants. Cells were plated and cultured in 96-well plates (Greiner Bio-One) at the initial density of 5 × 10^3 cells per well in 100 µL of culture medium. Cells were allowed to attach and grow for 1 day prior to the addition of test reagents. Then, the media were replaced with the working solutions (3 µM, 10 µM, 30 µM), and cells were exposed to compounds 2–6 for 24 h. In some cases, 5 µM cyclosporin A (CsA, an inhibitor of the mitochondrial permeability transition) was added to the cells 30 min before treatment with the betulin derivative. Subsequently, cells were incubated concomitantly with both compounds. After a 24 h incubation period, plates were centrifuged (200× g; 10 min), media were removed, and cells were lysed for 30 min at room temperature. At the next step, the lysates were again spun (200× g; 10 min), and 20 µL of supernatants (cytoplasmic fractions) was moved to the new 96-well streptavidin-coated plate. In one experiment, the presence of mono- and oligonucleosomes was determined in 20 µL samples of centrifuged culture supernatants (media) to detect the permeability of plasma membrane (considered as an indicator of cell necrosis). Then, the sandwich ELISA assay was fulfilled according to the manufacturer’s protocol. Absorbance was measured at 405 nm and 490 nm (reference wavelength), and the enrichment factor of the cytoplasmic (or supernatant) fraction in mono- and oligonucleosomes was calculated according to the formula: EF = absorbance of sample cells/absorbance of control cells.
A high EF index in the cytoplasmic fraction (resulting from DNA fragmentation while maintaining the tightness of cell membranes) is a typical indicator of the relatively early stage of apoptosis.

[4] = test system: T47D cell line; parameters: method as in PMID 33572631; conditions: cited from earlier work
[5] = test system: SNB-19 cell line; parameters: method as in PMID 33572631; conditions: cited from earlier work
[6] = test system: SK-OV-3 cells; test: TMRM analysis of mitochondrial membrane potential; format: cell-based, human; conditions: SK-OV-3, 3 h, 30 µM
Experimental: Tetramethylrhodamine methyl ester (Sigma Aldrich) was used for the assessment of changes in the transmembrane potential of mitochondria. TMRM is a fluorescent cationic dye accumulating in mitochondria in a potential-dependent manner. Cell cultures were prepared as described above for acridine orange staining. Cells were exposed to test solutions for 3 h, and then TMRM was added (final concentration 100 nM) followed by incubation for 30 min in the CO2 incubator. Prior to observation, the plates were centrifuged (250× g, 5 min), and the medium was changed to PBS. The cells were analyzed under the Nikon Eclipse TS-100F microscope and photographed.

Structure (SMILES)	IC50 ([1]; 72 h, SK-OV-3, 3 days treatment, SRB assay, read-out: IC50) [nM]	IC50 ([1]; 120 h, SK-OV-3, 5 days treatment, SRB assay, read-out: IC50) [nM]	IC50 ([2]; 3 days treatment)	IC50 ([2]; 5 days treatment)	DNA fragmentation (number of mono- and oligonucleosomes) [3]	DNA fragmentation (enrichment factor) ([3]; 30 µM)	IC50 ([1]; SK-OV-3, 72 h) [nM]	IC50 ([1]; SK-OV-3, 120 h) [nM]	concentration at which antiproliferative activity (decrease in the number of cells) was evident ([1]; SK-OV-3, SRB assay, 0.1–30 µM) [µM]	IC50 [4] [nM]	IC50 [5] [nM]	mitochondrial membrane potential (TMRM fluorescence) [6]
C=C(C)[C@@H]1CC[C@]2(CO)CC[C@]3(C)[C@H](CC[C@@H]4[C@@]5(C)CC[C@H](O)C(C)(C)[C@@H]5CC[C@]43C)[C@@H]12 [Compound 1, lup-20(29)-ene-3β,28-diol, reference compound]	8210	4590	Neg	Neg	comparable to the control	caused an increase in DNA fragmentation						
C#CC(=O)OC[C@]12CC[C@@H](/C(C)=C/P(=O)(OCC)OCC)C1C1CCC3[C@@]4(C)CC[C@H](O)C(C)(C)C4CC[C@@]3(C)[C@]1(C)CC2 (stereo partly drawn) [Compound 6, E-29-diethoxyphosphoryl-28-O-propynoylbetulin]			Neg	Neg	slightly smaller effect than the lowest concentration of compound 4		290	260	1	700	430	reduced the mitochondrial membrane potential
